The nature of series [1]: Water solubility of acid salts of the esters by the dry weight method. Type of series: physicochemical. The note with it: acid addition salts (hydrochlorides); for solubility: water.
Series [2] is described as follows: Qualitative solubility of esters and salts in water and organic solvents. It is filed as physicochemical.
The nature of series [3]: True water solubility of base polyene antibiotics by DMSO dilution and ultra-violet spectrum. It is filed as physicochemical. The note with it: for solubility: water.
The subject of the next series is Saccharomyces cerevisiae. Description: Minimum inhibitory concentration, in vitro antifungal potency (Saccharomyces cerevisiae). Type of series: cell-based. The note with it: for MIC: read-out: Min. Inhibitory Conc. An excerpt:
(§1) As indicated, numerous tests have shown that the antimicrobial activity of the present derivatives, both in the immediate ester form of esterification and in the final water-soluble salt form, is substantially the same as that of the base antibiotics. […] In the table the numerical values represent minimum inhibitory concentration and thus the lower the value, the greater the activity in inhibiting growth of the organism.

The test system of another series is Mucor rouxii. Description: Minimum inhibitory concentration (Mucor rouxii). Type of series: cell-based. The note with it: Amylomyces rouxii.
Description: as §1
(§2) In the case of amphotericin B this set of tests was extended to other microorganisms: the minimum inhibitory concentrations in micrograms per ml. for amphotericin B and its methyl ester hydrochloride respectively were 0.5 and 0.5 against Candida albicans, 0.5 and 0.5 against Mucor rouxii, and 0.20 and 0.25 against Aspergillus niger.

In a further series the test system is Aspergillus niger. Description: Minimum inhibitory concentration (Aspergillus niger). It is filed as cell-based.
Description: as §1, §2

Series [4] can be described thus: True solution in water judged by ultra-violet spectrum (FIG. 5). It is filed as physicochemical. The following applies: 7 micrograms per ml. in water. From the text: The true solubility of the present derivatives is further illustrated by FIG. 5, where curve A is the ultraviolet spectrum for amphotericin B methyl ester hydrochloride in water, 7 micrograms per ml., and curve B is a like spectrum for the same concentration of the base amphotericin B in water.

For the next series, the system named is Candida albicans. Nature of the series: Minimum inhibitory concentration (Candida albicans). Type of series: cell-based.
Description: as §1, §2

Series [5] deals with Saccharomyces cerevisiae, Candida albicans and Aspergillus niger. Description: Standard in vitro tests of antimicrobial activity of derivative and base against representative organisms. It is filed as cell-based. The following applies: result in words.
Description: as §1

Where [6] appears, read: base antibiotics, calculated from UV after ten fold dilution of saturated water solution with dimethyl sulfoxide.

≈ marks a conversion by molar mass, not a printed value. Where a name gives a salt, the structure may show the parent alone. Read-outs that look alike come from different tables or passages of the source.

Regarding `CCOC(=O)[C@H]1[C@@H]2C[C@@H](O[C@@H]3O[C@H](C)[C@@H](O)[C@H](N)[C@@H]3O)/C=C/C=C/C=C/C=C/C=C/C=C/C=C/[C@H](C)[C@@H](O)[C@@H](C)[C@H](C)OC(=O)C[C@H](O)C[C@H](O)CC[C@@H](O)[C@H](O)C[C@H](O)C[C@](O)(C[C@@H]1O)O2` [Amphotericin B ethyl ester hydrochloride, amphotericin B ethyl ester hydrochloride], the solubility (commonly the dissolved amount per volume that the medium holds) in series [1] is more than 75 mg/mL. `COC(=O)[C@H]1[C@@H]2C[C@@H](O[C@@H]3O[C@H](C)[C@@H](O)[C@H](N)[C@@H]3O)/C=C/C=C/C=C/C=C/C=C/C=C/C=C/[C@H](C)[C@@H](O)[C@@H](C)[C@H](C)OC(=O)C[C@H](O)C[C@H](O)CC[C@@H](O)[C@H](O)C[C@H](O)C[C@](O)(C[C@@H]1O)O2` [Amphotericin B methyl ester, amphotericin B methyl ester]: the “solubility in ethyl acetate” value in series [2] (ethyl acetate) is listed as “slightly soluble”. Also, in [2] (methyl alcohol, ethyl alcohol, tetrahydrofurane, dimethyl formamide and dimethyl sulfoxide), the “solubility in organic solvents” value is given as “soluble”. Also, the “solubility in petroleum ether and ethyl ether” value in series [2] (petroleum ether and ethyl ether) was “insoluble”. Moreover, the “solubility in water (in words)” value in series [2] (water) is listed as “slightly soluble”. Take `C[C@@H]1[C@H](O)[C@@H](C)/C=C/C=C/C=C/C=C/C=C/C=C/C=C/[C@H](O[C@@H]2O[C@H](C)[C@@H](O)[C@H](N)[C@@H]2O)C[C@@H]2O[C@](O)(C[C@@H](O)C[C@@H](O)[C@H](O)CC[C@@H](O)C[C@@H](O)CC(=O)O[C@H]1C)C[C@H](O)[C@H]2C(=O)O` [Amphotericin B, amphotericin B, reference compound]: the solubility in series [3] (base antibiotics, calculated from UV after ten fold dilution of saturated water solution with dimethyl sulfoxide, read-out: Solubility in water) is 0.0017 mg/mL (≈ 1.84 µM). Moreover, the MIC in the series on Saccharomyces cerevisiae is 0.25 µg/mL (≈ 0.271 µM); against Mucor rouxii, 0.5 µg/mL (≈ 0.541 µM); with Aspergillus niger it was 0.2 µg/mL (≈ 0.216 µM). The “state in water by ultraviolet spectrum” value in series [4] was “did not dissolve and was therefore a mere dispersion”. For `C[C@@H]1[C@H](O)[C@@H](C)/C=C/C=C/CC/C=C/C=C/C=C/C=C/C(O[C@H]2O[C@H](C)[C@@H](O)[C@H](N)[C@@H]2O)CC2O[C@](O)(CC(O)C(O)CCC(O)CC(O)CC(O)CC(=O)O[C@H]1C)CC(O)C2C(=O)O` (some centres unmarked) [Nystatin, reference compound], in series [3] (setting [6]), the Solubility in water was 0.039 mg/mL (≈ 42.1 µM). Moreover, in the series with Saccharomyces cerevisiae (in vitro), the “Min. Inhibitory Conc.” value is reported as 3.00 micrograms/ml. Take `COC(=O)C1C(O)CC2(O)CC(O)CC3OC3/C=C/C(=O)OC(C)C/C=C/C=C/C=C/C=C/C(OC3OC(C)C(O)C(N)C3O)CC1O2` (centres unmarked) [Pimaricin methyl ester hydrochloride]: in series [1], the solubility is more than 80 mg/mL. Regarding `COC(=O)C1C(O)CC2(O)CC(O)CC3OC3/C=C/C(=O)OC(C)C/C=C/C=C/C=C/C=C/C(OC3OC(C)C(O)C(N)C3O)CC1O2` (centres unmarked) [Pimaricin methyl ester], the MIC in the series with Saccharomyces cerevisiae (in vitro) is 4 µg/mL (≈ 5.88 µM).

Turning to `C[C@@H]1C/C=C/C=C/C=C/C=C/[C@H](O[C@@H]2O[C@H](C)[C@@H](O)[C@H](N)[C@@H]2O)C[C@@H]2O[C@](O)(C[C@@H](O)C[C@H]3O[C@@H]3/C=C/C(=O)O1)C[C@H](O)[C@H]2C(=O)O` [Pimaricin, reference compound], the concentration in solution in series [3] (solubility) came to 0.052 mg/mL (≈ 78.1 µM). Further, the MIC with Saccharomyces cerevisiae (in vitro) stood at 3.5 µg/mL (≈ 5.26 µM). In the case of `COC(=O)[C@H]1[C@@H]2C[C@@H](O[C@@H]3O[C@H](C)[C@@H](O)[C@H](N)[C@@H]3O)/C=C/C=C/C=C/C=C/C=C/C=C/C=C/[C@H](C)[C@@H](O)[C@@H](C)[C@H](C)OC(=O)C[C@H](O)C[C@H](O)CC[C@@H](O)[C@H](O)C[C@H](O)C[C@](O)(C[C@@H]1O)O2` [amphotericin B methyl ester hydrochloride], in series [1] (hydrochloride), the Solubility in water was more than 75 mg/mL. Besides, the solubility in [1] is more than 75 mg/mL. Further, the MIC is 0.25 µg/mL in the series with Saccharomyces cerevisiae, 0.5 µg/mL against Candida albicans, 0.5 µg/mL against Mucor rouxii and 0.25 µg/mL against Aspergillus niger. In addition, the “antimicrobial activity compared with the base antibiotic” value in [5] is given as “very substantial antimicrobial activity, essentially the same, i.e., quantitatively, as the base antibiotic”. For the same compound, the “state in water by ultraviolet spectrum” value in [4] is “true solution in water”. Candicidin [reference compound]: in series [3] (setting [6]), the Solubility in water was 0.032 mg/mL. In addition, the “Min. Inhibitory Conc.” value in the series on Saccharomyces cerevisiae (in vitro) amounted to 0.020 micrograms/ml. As to Candicidin methyl ester hydrochloride, the Solubility in water in series [1] is more than 20.0 mg/mL. Besides, the “Min. Inhibitory Conc.” value with Saccharomyces cerevisiae (in vitro) turned out to be 0.025 micrograms/ml. As for Candidin, the Solubility in water in series [3] (setting [6]) was 0.116 mg/mL. In the case of Candidin methyl ester hydrochloride, in series [1], the Solubility in water was more than 50.0 mg/mL. With Candimycin [reference compound], in the series with Saccharomyces cerevisiae (in vitro), the “Min. Inhibitory Conc.” value is given as 0.025 micrograms/ml. Candimycin methyl ester: in the series with Saccharomyces cerevisiae (in vitro), the “Min. Inhibitory Conc.” value is 0.025 micrograms/ml. For Hamycin, in series [3] (setting [6]), the Solubility in water is 0.032 mg/mL. With Hamycin methyl ester hydrochloride, the Solubility in water in series [1] is more than 20.0 mg/mL.

With Mediocidin [reference compound], the Solubility in water in [3] (setting [6]) is 0.072 mg/mL. Further, in the series on Saccharomyces cerevisiae (in vitro), the “Min. Inhibitory Conc.” value was determined as 0.035 micrograms/ml. On to Mediocidin methyl ester, for which the “Min. Inhibitory Conc.” value with Saccharomyces cerevisiae (in vitro) is reported as 0.030 micrograms/ml. Still for that read-out and setting: with Nystatin methyl ester the figure was 4.00 micrograms/ml. For the compound Nystatin methyl ester hydrochloride, in series [1], the Solubility in water is more than 80.0 mg/mL. As for Trichomycin [reference compound], the Solubility in water in [3] (setting [6]) was 0.046 mg/mL. Further, the “Min. Inhibitory Conc.” value in the series with Saccharomyces cerevisiae (in vitro) is on record as 0.030 micrograms/ml. As to Trichomycin methyl ester hydrochloride, in series [1], the Solubility in water is more than 20.0 mg/mL. In the series with Saccharomyces cerevisiae (in vitro), the “Min. Inhibitory Conc.” value is given as 0.030 micrograms/ml. Consider mediocidin methyl ester hydrochloride, for which the Solubility in water in series [1] is more than 50.0 mg/mL.

The values are drawn from patent publication US3945993A, “Derivatives of polyene macrolide antibiotics” (Rutgers Research and Educational Foundation, priority 1971, dated 1976).
